Measured values: patent US12162820B2 (TAIWANJ PHARMACEUTICALS CO., LTD., priority 2019, dated 2024)

Columns and labels:
Type in all cases: biochemical
HDAC1 = target: T1, HDAC1 (Homo sapiens, UniProt Q13547); test: HDAC Inhibition Screening Assay (FLUOR DE LYS Fluorimetric Drug Discovery Kit), HDAC1; conditions: for inhibition at 2 µM: 2 μM compound; for inhibition at 10 µM: 10 μM compound; for inhibition at 50 µM: 50 μM compound
T1 construct: purchased Enzo Life Sciences
How it was run: (§1)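 Two-step fluorimetric kit: enzyme deacetylates acetylated-lysine substrate; developer then releases fluorophore. Test cpds 2, 10, 50 μM. Ex 360/485 nm, Em 460/530 nm. Activity = % of basal control minus baseline control.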

HDAC2 = target: T2, HDAC2 (Homo sapiens, UniProt Q92769); test: HDAC Inhibition Screening Assay (FLUOR DE LYS Fluorimetric Drug Discovery Kit), HDAC2; conditions: for inhibition at 2 µM: 2 μM compound; for inhibition at 10 µM: 10 μM compound; for inhibition at 50 µM: 50 μM compound
T2 construct: purchased Enzo Life Sciences
T2 sequence (Q92769 whole entry): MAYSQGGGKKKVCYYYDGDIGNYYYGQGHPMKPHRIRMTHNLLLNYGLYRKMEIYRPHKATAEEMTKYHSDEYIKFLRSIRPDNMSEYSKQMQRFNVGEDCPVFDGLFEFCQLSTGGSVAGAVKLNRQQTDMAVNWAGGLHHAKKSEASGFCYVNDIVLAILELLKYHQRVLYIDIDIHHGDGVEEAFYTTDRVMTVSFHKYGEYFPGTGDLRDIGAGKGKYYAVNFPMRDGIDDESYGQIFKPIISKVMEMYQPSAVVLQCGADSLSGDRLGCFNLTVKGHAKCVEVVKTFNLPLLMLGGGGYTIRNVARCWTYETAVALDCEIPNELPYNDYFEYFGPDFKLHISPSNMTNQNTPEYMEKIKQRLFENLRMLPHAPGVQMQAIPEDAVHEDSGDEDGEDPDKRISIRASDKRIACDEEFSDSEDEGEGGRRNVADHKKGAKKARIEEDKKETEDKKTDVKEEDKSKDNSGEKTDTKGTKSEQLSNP
How it was run: as §1

HDAC3 = target: T3, HDAC3 (Homo sapiens, UniProt O15379); test: HDAC Inhibition Screening Assay (FLUOR DE LYS Fluorimetric Drug Discovery Kit), HDAC3; conditions: for inhibition at 2 µM: 2 μM compound; for inhibition at 10 µM: 10 μM compound; for inhibition at 50 µM: 50 μM compound
T3 construct: purchased Enzo Life Sciences
T3 sequence (O15379 whole entry): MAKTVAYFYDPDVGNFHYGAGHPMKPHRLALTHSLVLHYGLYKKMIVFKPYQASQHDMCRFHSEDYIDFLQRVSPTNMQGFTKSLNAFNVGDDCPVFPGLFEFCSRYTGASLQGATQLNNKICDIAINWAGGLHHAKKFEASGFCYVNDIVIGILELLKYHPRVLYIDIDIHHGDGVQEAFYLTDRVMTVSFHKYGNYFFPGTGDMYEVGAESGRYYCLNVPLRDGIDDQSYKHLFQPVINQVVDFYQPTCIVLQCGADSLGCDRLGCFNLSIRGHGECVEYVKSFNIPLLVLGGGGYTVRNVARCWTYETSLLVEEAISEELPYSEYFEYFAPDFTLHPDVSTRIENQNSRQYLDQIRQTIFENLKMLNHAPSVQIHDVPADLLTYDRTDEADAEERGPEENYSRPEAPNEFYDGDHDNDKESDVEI
T3 sequence (O75376 395-489 partner limits assumed): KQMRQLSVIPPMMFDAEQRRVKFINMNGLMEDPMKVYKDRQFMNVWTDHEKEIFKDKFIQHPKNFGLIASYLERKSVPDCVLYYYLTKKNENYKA
How it was run: as §1

ATX (autotaxin) = target: T4, ATX (autotaxin) (Homo sapiens, UniProt Q13822); test: Autotaxin Inhibition Screening Assay (choline release from LPC, LPC-CR); conditions: for inhibition at 4 µM: 4 μM compound; for inhibition at 20 µM: 20 μM compound; for inhibition at 50 µM: 50 μM compound
T4 construct: purchased Cayman 10803
How it was run: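 20 ng ATX incubated with 100 μM 14:0 LPC in 50 mM Tris pH 8.0, 0.01% Triton X-100, 50 mM CaCl2, with choline oxidase/HRP/2 mM HVA coupling; compounds at 4, 20 and 50 μM. HVA fluorescence (ex/em 320/450 nm) read every 60 s for 90 min; inhibition % from slopes corrected for blank versus vehicle.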

T1 sequence (Q13547 whole entry): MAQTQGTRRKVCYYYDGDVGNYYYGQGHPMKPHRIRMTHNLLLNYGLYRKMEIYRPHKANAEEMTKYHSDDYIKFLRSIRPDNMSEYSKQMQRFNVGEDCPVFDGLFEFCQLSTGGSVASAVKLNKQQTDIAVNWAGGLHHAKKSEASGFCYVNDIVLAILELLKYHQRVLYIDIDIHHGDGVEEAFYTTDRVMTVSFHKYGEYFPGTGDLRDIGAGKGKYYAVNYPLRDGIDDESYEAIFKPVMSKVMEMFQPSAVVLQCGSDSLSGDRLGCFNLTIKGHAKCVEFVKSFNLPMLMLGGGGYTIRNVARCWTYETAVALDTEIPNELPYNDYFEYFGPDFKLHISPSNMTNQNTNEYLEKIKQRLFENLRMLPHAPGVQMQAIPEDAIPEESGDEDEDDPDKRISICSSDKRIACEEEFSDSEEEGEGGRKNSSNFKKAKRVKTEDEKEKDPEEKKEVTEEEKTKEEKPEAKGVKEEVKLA

## O=C(CCCCCNC(=O)c1ccc2c(c1)CC/C(=C\c1cc(C(F)(F)F)cc(C(F)(F)F)c1)C2=O)NO [Compound 79, (E)-6-(3,5-bis(trifluoromethyl)benzylidene)-N-(6-(hydroxyamino)-6-oxohexyl)-5-oxo-5,6,7,8-tetrahydronaphthalene-2-carboxamide]
HDAC1
  inhibition at 2 µM: 50 to 80%
  inhibition at 10 µM: > 80%
  inhibition at 50 µM: > 80%
HDAC2
  inhibition at 2 µM: 50 to 80%
  inhibition at 10 µM: > 80%
  inhibition at 50 µM: > 80%
HDAC3
  inhibition at 2 µM: 50 to 80%
  inhibition at 10 µM: > 80%
  inhibition at 50 µM: > 80%
ATX (autotaxin)
  inhibition at 4 µM: > 80%
  inhibition at 20 µM: > 80%
  inhibition at 50 µM: > 80%

## Nc1cc(F)ccc1NC(=O)CCCCNC(=O)c1ccc2c(c1)CC/C(=C\c1cc(C(F)(F)F)cc(C(F)(F)F)c1)C2=O [Compound 80]
HDAC1
  inhibition at 2 µM: < 50%
  inhibition at 10 µM: < 50%
  inhibition at 50 µM: < 50%
HDAC2
  inhibition at 2 µM: < 50%
  inhibition at 10 µM: < 50%
  inhibition at 50 µM: < 50%
HDAC3
  inhibition at 2 µM: < 50%
  inhibition at 10 µM: < 50%
  inhibition at 50 µM: < 50%
ATX (autotaxin)
  inhibition at 4 µM: < 50%
  inhibition at 20 µM: < 50%
  inhibition at 50 µM: 50 to 80%

## O=C(CCCCNC(=O)c1ccc2c(c1)CC/C(=C\c1cc(C(F)(F)F)cc(C(F)(F)F)c1)C2=O)NO [Compound 81, (E)-6-(3,5-bis(trifluoromethyl)benzylidene)-N-(5-(hydroxyamino)-5-oxopentyl)-5-oxo-5,6,7,8-tetrahydronaphthalene-2-carboxamide]
HDAC1
  inhibition at 2 µM: < 50%
  inhibition at 10 µM: < 50%
  inhibition at 50 µM: 50 to 80%
HDAC2
  inhibition at 2 µM: < 50%
  inhibition at 10 µM: < 50%
  inhibition at 50 µM: 50 to 80%
HDAC3
  inhibition at 2 µM: < 50%
  inhibition at 10 µM: 50 to 80%
  inhibition at 50 µM: 50 to 80%
ATX (autotaxin)
  inhibition at 4 µM: > 80%
  inhibition at 20 µM: > 80%
  inhibition at 50 µM: > 80%

## Nc1cc(F)ccc1NC(=O)CCCCC(=O)N1CCN(C(=O)c2ccc3c(c2)CC/C(=C\c2cc(C(F)(F)F)cc(C(F)(F)F)c2)C3=O)CC1 [Compound 82, (E)-N-(2-amino-4-fluorophenyl)-6-(4-(6-(3,5-bis(trifluoromethyl)benzylidene)-5-oxo-5,6,7,8-tetrahydronaphthalene-2-carbonyl)piperazin-1-yl)-6-oxohexanamide]
HDAC1
  inhibition at 2 µM: < 50%
  inhibition at 10 µM: < 50%
  inhibition at 50 µM: < 50%
HDAC2
  inhibition at 2 µM: < 50%
  inhibition at 10 µM: < 50%
  inhibition at 50 µM: < 50%
HDAC3
  inhibition at 2 µM: < 50%
  inhibition at 10 µM: < 50%
  inhibition at 50 µM: 50 to 80%
ATX (autotaxin)
  inhibition at 4 µM: > 80%
  inhibition at 20 µM: > 80%
  inhibition at 50 µM: > 80%

## O=C(CCCCC(=O)N1CCN(C(=O)c2ccc3c(c2)CC/C(=C\c2cc(C(F)(F)F)cc(C(F)(F)F)c2)C3=O)CC1)NO [Compound 83, (E)-6-(4-(6-(3,5-bis(trifluoromethyl)benzylidene)-5-oxo-5,6,7,8-tetrahydro-naphthalene-2-carbonyl)piperazin-1-yl)-N-hydroxy-6-oxohexanamide]
HDAC1
  inhibition at 2 µM: < 50%
  inhibition at 10 µM: < 50%
  inhibition at 50 µM: 50 to 80%
HDAC2
  inhibition at 2 µM: < 50%
  inhibition at 10 µM: < 50%
  inhibition at 50 µM: 50 to 80%
HDAC3
  inhibition at 2 µM: < 50%
  inhibition at 10 µM: < 50%
  inhibition at 50 µM: 50 to 80%
ATX (autotaxin)
  inhibition at 4 µM: > 80%
  inhibition at 20 µM: > 80%
  inhibition at 50 µM: > 80%
